From patent US10875871B2, “Photosensitizer” (Tampereen Korkeakoulusäätiö sr, priority 2016, dated 2020)

Tested on: E. coli MG1655
Assay: Colony forming unit (CFU) method, solar simulator
Assay type: cell-based, Escherichia coli
Conditions: for Colony counts after incubation / CFU/ml / Colony counts after incubation (Average) / Colony counts after incubation (Duplicate): E. Coli
Description: The antimicrobial efficiency of the dye was confirmed by CFU method using microbes E. coli MG1655 (E. coli Genetic Resources at Yale) and A. baylyi ADP1 (ATCC 33305). […] The microplate was illuminated in the solar simulator for 1 hour. UV-IR radiations were cut off using a combination of KG3 band pass filter (315-750 nm transmittance) and ? c-17 yellow filter (transmittance >485 nm). Similarly, light control samples were prepared by depositing microbial medium over dyed and un-dyed samples by covering microplate with aluminum foil for 1 h at room temperature. After 1 h of illumination or incubation, the microbes were extracted with LB medium (10 g/l tryptone, 5 g/l yeast extract, 5 g/l NaCl) (975 μl) and serial dilutions were made from each extract. The dilutions were then plated on LA agar plates and incubated at 30° C. overnight. The number of colonies grown on the agar plate was counted and CFUs per milliliter were calculated from it.

[1] = Pc4 filter paper-Dark 1 h, dilution factor 2.50E−06, 0.1 ml plated
[2] = illuminated Pc4 filter paper 1 h, dilution factor 2.50E−02, 0.1 ml plated
[3] = illuminated Pc4 filter paper 1 h, dilution factor 2.50E−03, 0.1 ml plated
[4] = illuminated Pc4 filter paper 1 h, dilution factor 2.50E−04, 0.1 ml plated
[5] = illuminated Pc4 filter paper 1 h, dilution factor 2.50E−05, 0.1 ml plated
[6] = illuminated Pc4 filter paper 1 h, dilution factor 2.50E−06, 0.1 ml plated

{4,4′,4″,4″-(29H,31H-phthalocyanine-1(4),8(11),15(18),22(25)-tetrayl-κ 4N29,N30,N31,N32)tetrakis [1-methylpyridiniumato(2-)]}zinc(4+) tetraiodide [Pc4]
Colony counts after incubation (Pc4 filter paper-Dark 1 h, dilution factor 2.50E−02, 0.1 ml plated): Too many to count | Colony counts after incubation (Pc4 filter paper-Dark 1 h, dilution factor 2.50E−03, 0.1 ml plated): Too many to count | Colony counts after incubation (Pc4 filter paper-Dark 1 h, dilution factor 2.50E−04, 0.1 ml plated): Too many to count | Colony counts after incubation (Pc4 filter paper-Dark 1 h, dilution factor 2.50E−05, 0.1 ml plated): Too many to count | CFU/ml [1]: 1.51E+09 CFU/ml | Colony counts after incubation [1]: 327 | Colony counts after incubation (Average) [1]: 378 | Colony counts after incubation (Duplicate) [1]: 429 | CFU/ml [2]: 0.00E+00 CFU/ml | Colony counts after incubation [2]: 0 | Colony counts after incubation (Average) [2]: 0 | Colony counts after incubation (Duplicate) [2]: 0 | CFU/ml [3]: 0.00E+00 CFU/ml | Colony counts after incubation [3]: 0 | Colony counts after incubation (Average) [3]: 0 | Colony counts after incubation (Duplicate) [3]: 0 | CFU/ml [4]: 0.00E+00 CFU/ml | Colony counts after incubation [4]: 0 | Colony counts after incubation (Average) [4]: 0 | Colony counts after incubation (Duplicate) [4]: 0 | CFU/ml [5]: 0.00E+00 CFU/ml | Colony counts after incubation [5]: 0 | Colony counts after incubation (Average) [5]: 0 | Colony counts after incubation (Duplicate) [5]: 0 | CFU/ml [6]: 0.00E+00 CFU/ml | Colony counts after incubation [6]: 0 | Colony counts after incubation (Average) [6]: 0 | Colony counts after incubation (Duplicate) [6]: 0 | microbial growth on plates (E. coli, illuminated Pc4 filter paper, 1 hour solar simulator): No microbial growth
